Counter-ions that a name gives are not always drawn.
How the values were obtained:
[1] = molecular target: T1, human RORγt ligand binding domain (RORγt LBD) (Homo sapiens, UniProt P51449); test: RORγt ThermoFluor assay (thermal shift, ligand binding affinity); details: estimated from concentration response of thermal shift
T1 construct: His-tag (N); TurboTEV protease cleavage site (ENLYFQG) (N); made in house; host or cells: E. coli (pHIS1, modified pET vector)
T1 sequence (P51449 with tags, fused parts or gaps): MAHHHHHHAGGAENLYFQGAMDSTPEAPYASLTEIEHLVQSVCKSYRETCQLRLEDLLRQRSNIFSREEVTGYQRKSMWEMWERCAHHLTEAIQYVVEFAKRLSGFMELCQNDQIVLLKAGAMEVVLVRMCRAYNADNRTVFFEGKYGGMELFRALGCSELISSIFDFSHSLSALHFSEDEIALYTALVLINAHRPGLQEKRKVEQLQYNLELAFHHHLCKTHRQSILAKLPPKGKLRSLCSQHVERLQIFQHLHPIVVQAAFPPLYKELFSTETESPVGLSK
Procedure, shortened: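 Thermal shift of 0.065 mg/mL RORγt with 60 μM 1,8-ANS in 100 mM Hepes pH 7.0, 10 mM NaCl, 2.5 mM GSH, 0.002% Tween-20. Compounds in 1:2 series from 10 mM DMSO stock. Dye fluorescence (500 nm emission) tracked versus temperature; ΔTm used to derive KD.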

[2] = system: IL-17 production by CD4 T cells; test: Human Th17 assay (IL-17 production by CD4 T cells under Th17 differentiation conditions); type: cell-based; details: Homo sapiens, CD4+ T, 72 h, IL-17 in supernatant after 3 days
Procedure, shortened: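 Primary CD4+ T cells from healthy-donor PBMC, preincubated 1 h with titrated compound (0.2% DMSO), then activated with anti-CD3/CD28 beads plus anti-IL4, anti-IFNγ, IL1β, IL23, IL6, TGFβ and IL2.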

human RORγt LBD = molecular target: T2, human RORγt LBD (Homo sapiens, UniProt P51449); test: RORγt reporter assay (GAL4-RORγt LBD luciferase in HEK293T cells); type: cell-based; details: for IC50: HEK293T cells, 24 hours compound treatment; for inhibition at 6 µM: HEK-293T, read-out: RORγt reporter Assay, % inhibition @ 6 μM, HEK293T cells, 6 μM compound
T2 construct: expressed in transfected cells
T2 sequence (P51449 258-518): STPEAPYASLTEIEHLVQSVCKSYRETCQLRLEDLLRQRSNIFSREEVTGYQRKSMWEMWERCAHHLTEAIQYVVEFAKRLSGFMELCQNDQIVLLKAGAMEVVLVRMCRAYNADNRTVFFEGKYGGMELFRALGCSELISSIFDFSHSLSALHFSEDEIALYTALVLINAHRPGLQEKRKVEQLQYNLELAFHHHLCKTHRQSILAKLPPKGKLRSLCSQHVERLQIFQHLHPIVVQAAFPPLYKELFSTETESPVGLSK
Procedure, shortened: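 Read-out is the firefly-to-renilla luciferase ratio versus compound concentration, after 24 h compound exposure of cells in phenol-red-free DMEM/5% lipid-reduced FCS. Cells were HEK293T bulk-transfected with a GAL4-responsive firefly reporter (pGL4.31) and GAL4 DBD–wild-type human RORγt LBD fusion (pBIND, renilla as transfection/viability control).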

| Structure (SMILES) | Kd [1] | IC50 [2] | IC50 (human RORγt LBD) | inhibition at 6 µM (human RORγt LBD) |
| --- | --- | --- | --- | --- |
| CCN(CC)c1nc2ccc(C(O)(c3ccncc3)c3cncn3C)cc2c(C)c1-c1ccccc1 (centres unmarked) [Example 102, [2-(Diethylamino)-4-methyl-3-phenylquinolin-6-yl](1-methyl-1H-imidazol-5-yl)pyridin-4-ylmethanol•TFA] | 41 nM | 150 nM | 140 nM | 104% |
| N#Cc1ccc(C(O)(c2cccc(Cl)c2)c2ccc3nc(C#N)c(-c4ccccc4)c(C#N)c3c2)cn1 (centres unmarked) [Example 104, 6-[(3-Chlorophenyl)(6-cyanopyridin-3-yl)hydroxymethyl]-3-phenylquinoline-2,4-dicarbonitrile•TFA] | 30 nM | 43 nM | 39 nM | 100% |
| CCN(CC)c1nc2ccc(C(O)(c3ccncc3)c3cncn3C)cc2c(OC)c1-c1ccccc1 (centres unmarked) [Example 105, [2-(Diethylamino)-4-methoxy-3-phenylquinolin-6-yl](1-methyl-1H-imidazol-5-yl)pyridin-4-ylmethanol•TFA] | 39 nM | 190 nM | 150 nM | 101% |
| COc1c(-c2ccccc2)c(N(C)C)nc2ccc(C(O)(c3ccncc3)c3cncn3C)cc12 (centres unmarked) [Example 107, [2-(Dimethylamino)-4-methoxy-3-phenylquinolin-6-yl](1-methyl-1H-imidazol-5-yl)pyridin-4-ylmethanol•TFA] | 65 nM | 39 nM | 59 nM | 101% |
| N#Cc1nc2ccc(C(O)(c3ccc(C(N)=O)nc3)c3cccc(Cl)c3)cc2c(C#N)c1-c1ccccc1 (centres unmarked) [Example 112, 5-[(3-Chlorophenyl)(2,4-dicyano-3-phenylquinolin-6-yl)hydroxymethyl]pyridine-2-carboxamide•TFA] | 120 nM | 480 nM | 380 nM | 100% |
| CCN(CC)c1nc2ccc(C(O)(c3cccnc3)c3cccc(Cl)c3)cc2c(C#N)c1-c1ccccc1 (centres unmarked) [Example 113, 6-[(3-Chlorophenyl)(hydroxy)pyridin-3-ylmethyl]-2-(diethylamino)-3-phenylquinoline-4-carbonitrile•TFA] | 1800 nM | 250 nM | 86 nM | 101% |
| Cn1cncc1C(O)(c1cncnc1)c1ccc2nc(Cl)c(-c3ccccc3)c(Cl)c2c1 (centres unmarked) [Example 120, (2,4-Dichloro-3-phenylquinolin-6-yl)(1-methyl-1H-imidazol-5-yl)(pyrimidin-5-yl)methanol] | 130 nM | 400 nM | 170 nM | 98% |
| Cn1cncc1C(O)(c1ccc2nc(Cl)c(-c3ccccc3)c(Cl)c2c1)c1cnccn1 (centres unmarked) [Example 122, (2,4-Dichloro-3-phenylquinolin-6-yl)(1-methyl-1H-imidazol-5-yl)(pyrazin-2-yl)methanol] | 250 nM | 500 nM | 470 nM | 91% |
| OC(c1ccc(Cl)cc1)(c1cncnc1)c1ccc2nc(Cl)c(-c3ccccc3)c(Cl)c2c1 (centres unmarked) [Example 124, (4-Chlorophenyl)(2,4-dichloro-3-phenylquinolin-6-yl)(pyrimidin-5-yl)methanol] | 120 nM | 920 nM | 220 nM | 100% |
| COC(c1ccncc1)(c1ccc2nc(N(C)C)c(-c3ccccc3)c(Cl)c2c1)c1cncn1C (centres unmarked) [Example 128, 4-Chloro-6-(methoxy(1-methyl-1H-imidazol-5-yl)(pyridin-4-yl)methyl)-N,N-dimethyl-3-phenylquinolin-2-amine•TFA] | 97 nM | 240 nM | 140 nM | 98% |
| COc1ccc(C(O)(c2ccc3nc(Cl)c(-c4ccccc4)c(Cl)c3c2)c2c(C)noc2C)cn1 (centres unmarked) [Example 129, (2,4-Dichloro-3-phenylquinolin-6-yl)(3,5-dimethylisoxazol-4-yl)(6-methoxypyridin-3-yl)methanol•TFA] | 6.2 nM | 80 nM | 160 nM | 100% |

Source: US9309222B2, “Phenyl linked quinolinyl modulators of RORγt” (Janssen Pharmaceutica NV, priority 2012, dated 2016)
